Entries after “also recorded” stand apart in the source; their conditions may differ.
Experiments:
U87R cells = experiment: Subtractive/selective biopanning of Ph.D.-12 phage display library against U87R cells, sequencing of subclones; parameters: species or system human; settings: given as n/100
Protocol: The present inventors have earlier described an in vivo selection for a population of human glioma cells that were highly invasive (U87R). In order to isolate peptides that could bind specifically to these highly invasive glioma cells, a biopanning experiment using a combinatorial phage display library was employed. Initially subtractive biopanning was performed with the U87 cells that were non-invasive (U87T) followed by selective biopanning with the U87R cells to isolate a library of phage (FIG. 1A) that were confirmed to preferentially interact with U87R cells by whole-cell ELISA (FIG. 1B).
Biopanning was performed as described in [61]. Subtraction cells (e.g. U87T) were released from tissue culture plastic with Puck's EDTA, and after washing with PBS, 1×10^7 cells were resuspended in 1% BSA in PBS with 1.5×10^11 pfu of Ph.D.-12 M13 Phage Library (New England Biolabs). The cells and phage were incubated in an eppendorf tube for 1 hour at room temperature with gentle shaking, before pelleting the cells and retaining the supernatant, which was transferred to a fresh tube with another aliquot of subtraction cells. The incubation and transfer of supernatant was performed three times, with the supernatant being transferred to an empty tube on the last round. Selection cells were released from tissue culture plastic with Puck's EDTA (e.g. U87R cells) and washed in PBS. 5×10^6 cells were resuspended in the 3× subtracted supernatant and incubated for 4 hours at 4° C. with slow shaking. The cell pellet was washed 5× in cold 1% BSA/0.1% Tween 20 in PBS five times, changing the tube after each wash. Bound phage were eluted by rocking the cells gently for 10 minutes at 4° C. in 1 mL of 0.2M Glycine-HCl pH 2.2 with 1 mg/mL BSA, and the supernatant was immediately neutralized with 150 μL of 1M Tris-HCl pH 9.1. The final library was amplified as per manufacturer's protocol.

[1] = tested on: U87MG cells transfected with p75^NTR; experiment: Transwell migration assay, p75NTR-transfected U87MG; assay type: cell-based, human; settings: in vitro invasion assay
Protocol: The membranes of 8 μm pore sized transwell inserts (Corning Costar) were coated with brain-like matrix (720 μL of 3 mg/mL collagen I (PureCol); 180 μL of 10×DMEM (Invitrogen); 9 uL of 1 mg/mL human plasma fibronectin (Sigma); 9 uL of 1 mg/mL chondroitin sulfate proteoglycans (Chemicon); 16 μL of 0.15 mg/mL laminin (Chemicon)) on both sides, allowed to dry, then plated with 5×10^4 cells in 100 μL media in the upper chamber and 500 μL media in the lower chamber. Inclusion of collagen was essential to see the inhibitory effect of H10 (FIG. S4). 3×10^10 pfu of test phage were added to the upper chambers containing the cells, which were incubated for 4 hours under normal culture conditions. At the end of the incubation, the media was aspirated and the cells were fixed and stained in 1% crystal violet in 95% ethanol for one minute. Transwells were rinsed in PBS, then cells on the upper membrane surfaces were removed with a cotton swab. Cells which had migrated to the undersurface of the membranes were counted by light microscopy, and the sum of cells in five microscopic fields was recorded for each membrane.

[2] = tested on: BTIC isolates (BTIC 12, 25, 42, 50); experiment: Biopanning of phage display library against a mixture of BTIC isolates, sequencing of subclones; settings: BTIC-binding phage subclones; given as n/50 subclones screened
[3] = tested on: implanted GBM tumor from the U87MG cell line; experiment: In vivo targeting of fluorescent peptide to implanted U87MG tumor, fluorescence microscopy of brain sections; parameters: species or system mice
Protocol: (§1) In the studies shown in FIGS. 13A and 13B, brain tumors were implanted in mice with a patient-derived BTIC cell line BT025 identified as above by its binding to the 7A peptide. After tumor growth from the implanted cells, the tumors were removed, sectioned and stained for microscopic visualization. In the studies shown in FIGS. 14-19, a fluorescent peptide was administered intravenously, either by intracorotid injection or via tail vein into mice having an implanted GBM tumor from the BT025 cell line (FIGS. 14-17) or the U87MG cell line (FIGS. 18 and 19), and after localization of the peptide, the animal were sacrificed and their brain tumors removed for sectioning and visualization by fluorescence microscopy.
FIGS. 18A and 18B-18D show similar views, where the animal was injected with a fluorescently labeled modified H10 peptide (SEQ ID NO: 17, preferential for HIGC binding), in animals carrying a tumor initiated with the U87MG human glioblastoma cell line. For these studies, the tumors were not grown as large, and a far-red fluorescent signal is not obvious from inspection without sectioning (FIG. 18A).
FIGS. 19A and 19B and 19D show similar views, where the animal was injected with a fluorescently labeled modified E10 peptide (SEQ ID NO: 13, which binds to both BTIC's and HIGC's), in animals carrying a tumor initiated with the U87MG human glioblastoma cell line. […]

U87T (main tumor) cells = experiment: Peptide binding to U87T cells; parameters: species or system human
[4] = tested on: BTIC lines (neurospheres); experiment: Staining with biotin-labeled synthetic peptide, confocal, BTIC neurospheres; assay type: binding, human; settings: neurospheres stained in suspension
Protocol: (§2) Binding specificity of the 7A peptide was assessed with non-target (U87MG; NSC) and target (BTIC) cells using a biotinylated 7A peptide (red) followed by confocal imaging.
(§3) To confirm the preferential binding of 7A to the BTICs rather than the cells used for subtraction, neurospheres and U87MG cells were stained in suspension with biotin-labeled synthetic peptide. […] Examination of the interaction of all selected peptides across a panel of BTIC lines underscored the heterogeneity within each cell population, and established a platform for correlating the ability to bind particular peptide sequences with either cell behavior or patient outcome.
(§4) Adherent cells: 13 mm coverslips were coated with neutralized 3 mg/mL Collagen I (PureCol), allowed to dry, then plated with test cells at 1×10^4/mL, 0.5 mL volume and allowed to equilibrate 20 minutes under normal culture conditions. Coverslips were fixed for 10 minutes in 3% formaldehyde in PBS, washed, then incubated in biotinylated peptide (3 mM stock) or primary antibody at a 1:100 dilution in 2% BSA/0.02% Tween 20 in PBS for 1 hour at room temperature. After washing in PBS, secondary antibody or streptavidin-Alexa 568 was applied at a dilution of 1:250 for 1 hour before coverslips were washed and mounted with DAKO mounting media with antifade. […]

U87R (HIGC) cells = experiment: Peptide binding to U87R cells; parameters: species or system human
U87MG cells = experiment: Staining with biotin-labeled synthetic peptide, confocal, U87MG; assay type: binding, human
Protocol: as §2, §3, §4

[5] = tested on: implanted GBM tumor from the BT025 cell line; experiment: In vivo targeting of fluorescent peptide to implanted BT025 tumor, fluorescence microscopy of brain sections; parameters: species or system mice; settings: for distribution of fluorescent peptide signal in brain sections: BT025 tumor, intracarotid injection; for localization of peptide conjugate in human GBM tissue in vivo (summary): intravenous administration, BT025 tumor (general statements also cover U87MG tumors)
Protocol: as §1
The peptide was administered to the mouse via intracarotid injection and allowed to circulate for approximately half an hour to allow clearance of background signal before the mouse was sacrificed and the brain removed for imaging using an Olympus OV100 whole mouse imaging system. By non-magnified inspection, the large outgrowth of the tumor is obvious.
FIGS. 14B and 14C are lower and higher magnification photomicrographs of a thin section taken from the brain in FIG. 14A after it was bisected close to the tumor implantation site and stained for human nuclear antigen (green) and total DNA (blue) to outline the positioning of the cells. The red peptide signal is visible on cells immediately adjacent to the main tumor mass as well as spread diffusely in the surrounding tissue.

Substance	number cell-binding phages containing that sequence (U87R cells)	number of phage subclones containing that sequence [2]	also measured
RTVPDYTAHVRT (synthetic HIGC targeting peptide) [M43]	5/100	–	–
methyl-β-cyclodextran	–	–	cell migration of U87p75 glioma cells [1]: significantly inhibited cell migration
EHMALTYPFRPP (synthetic HIGC targeting peptide) [C12]	13/100	–	–
IRSIRMRRILIL (synthetic BTIC targeting peptide) [C1]	–	2/50	–
SGHQLLLNKMPN (synthetic HIGC targeting peptide) [M19]	4/100	–	–
GMSLSRQMLWSL (synthetic HIGC targeting peptide) [F2]	2/100	–	–
HWAPSMYDYVSW (synthetic HIGC targeting peptide) [M5]	7/100	–	–
GISLSSYLQSTQ (synthetic HIGC targeting peptide) [M32]	20/100	–	–
SLHMRHKRKPRR (synthetic BTIC targeting peptide) [E10]	–	4/50	distribution of fluorescent peptide signal in brain sections ([3]; intracarotid injection): binds to a portion of cells within the main tumor mass; also recorded: also binds to cells outside of the main tumor mass; localization of peptide conjugate in human GBM tissue in vivo (summary) ([3]; intravenous administration): can localize in human GBM tissue in vivo; binding to U87T (main tumor) cells (U87T (main tumor) cells): bind; binding of peptide to BTICs [4]: binds; binding to U87R (HIGC) cells (U87R (HIGC) cells): bind; binding of peptide to U87MG cells (U87MG cells): binds
CIQLANPPRLXG [M23]	2/100	–	–
SVSVGMKPSPRP (synthetic HIGC targeting peptide) [A2]	21/100	–	–
SSRSMQRTLIIS (synthetic BTIC targeting peptide) [3F]	–	2/50	distribution of fluorescent peptide signal in brain sections [5]: most of the red signal appears outside of the main tumor mass; localization of peptide conjugate in human GBM tissue in vivo (summary) [5]: can localize in human GBM tissue in vivo
QTIRIIIRRSRT (synthetic BTIC targeting peptide) [10C]	–	6/50	–
KTSMRPLILIHI (synthetic BTIC targeting peptide) [3B]	–	2/50	distribution of fluorescent peptide signal in brain sections [5]: binds to cells that are both within and outside the main tumor mass; localization of peptide conjugate in human GBM tissue in vivo (summary) [5]: can localize in human GBM tissue in vivo
HLFPQSNYGGHS (synthetic HIGC targeting peptide) [M24]	2/100	–	–
